{
  "source": "patent US20260226074A1",
  "about": "“FUNGICIDAL COMPOSITIONS” (SYNGENTA CROP PROTECTION AG, priority 2023, published 2026)",
  "assay_type_in_all_cases": "cell-based",
  "conditions_in_all_cases": "single compound",
  "key": {"Sclerotinia sclerotiorum": {"tested_on": "Sclerotinia sclerotiorum", "test": "Sclerotinia sclerotiorum growth inhibition in nutrient broth (microtiter plate, photometric, 72 hrs, 620 nm)", "experimental": "Sclerotinia sclerotiorum (Cottony Rot, White Mold, Etc.); Mycelial fragments of the fungus prepared from a fresh liquid culture were directly mixed into nutrient broth (PDB potato dextrose broth). A DMSO solution of the test compounds was placed into a microtiter plate (96-well format) and the nutrient broth containing the fungal spores was added to it. The test plates were incubated at 24 C and the inhibition of growth was determined photometrically after 72 hrs at 620 nm"}, "[1]": {"tested_on": "Glomerella lagenarium Syn. Colletotrichum lagenarium", "test": "Glomerella lagenarium growth inhibition in nutrient broth (microtiter plate, photometric, 72 hrs, 620 nm)", "experimental": "(§1) Glomerella lagenarium Syn. Colletotrichum lagenarium (Anthracnose of Cucurbits); Conidia of the fungus from cryogenic storage were directly mixed into nutrient broth (PDB potato dextrose broth). A DMSO solution of the test compounds was placed into a microtiter plate (96-well format) and the nutrient broth containing the fungal spores was added to it. The test plates were incubated at 24 C and the inhibition of growth was determined photometrically after 72 hrs at 620 nm."}, "Alternaria solani": {"tested_on": "Alternaria solani", "test": "Alternaria solani growth inhibition in nutrient broth (microtiter plate, photometric, 48 hrs)", "experimental": "as §1, with “Alternaria solani (Early Blight Tomato/Potato):” for “Glomerella lagenarium Syn. Colletotrichum lagenarium (Anthracnose of Cucurbits);”, “48 hrs.” for “72 hrs at 620 nm.”"}, "[2]": {"tested_on": "Mycosphaerella arachidis Syn. Cercospora arachidicola", "test": "Mycosphaerella arachidis growth inhibition in nutrient broth (microtiter plate, photometric, 5-6 days, 620 nm)", "experimental": "as §1, with “Mycosphaerella arachidis” for “Glomerella lagenarium”, “Cercospora arachidicola (Brown Leaf Spot” for “Colletotrichum lagenarium (Anthracnose”, “Peanut):” for “Cucurbits);”, “5-6 days” for “72 hrs”, “nm” for “nm.”"}, "Septoria tritici": {"tested_on": "Septoria tritici", "test": "Septoria tritici growth inhibition in nutrient broth (microtiter plate, photometric, 72 hrs)", "experimental": "as §1, with “Septoria tritici (Leaf Blotch):” for “Glomerella lagenarium Syn. Colletotrichum lagenarium (Anthracnose of Cucurbits);”, “hrs.” for “hrs at 620 nm.”"}},
  "data": [
    {"smiles": "Cn1nnnc1/C(=N\\OCc1cccc(NC(=O)OC(C)(C)C)n1)c1ccccc1", "note": "[Picarbutrazox, picarbutrazox]", "values": [
      {"measurement": "Observed Activity", "setting": "Sclerotinia sclerotiorum; 6.66 ppm", "value": 0, "unit": "%"},
      {"measurement": "Observed Activity", "setting": "Sclerotinia sclerotiorum; 20 ppm", "value": 0, "unit": "%"}
    ]},
    {"smiles": "CCn1nccc1-c1c(Cl)cccc1Cc1cc2ccc(F)c(F)c2nc1C", "note": "[3-[[3-chloro-2-(2-ethylpyrazol-3-yl)phenyl]methyl]-7,8-difluoro-2-methyl-quinoline]", "values": [
      {"measurement": "Observed Activity", "setting": "Sclerotinia sclerotiorum; 2 ppm", "value": 0, "unit": "%"},
      {"measurement": "Observed Activity", "setting": "Sclerotinia sclerotiorum; 6 ppm", "value": 20, "unit": "%"},
      {"measurement": "Observed Activity", "setting": "[1]; 0.074 ppm", "value": 20, "unit": "%"},
      {"measurement": "Observed Activity", "setting": "[1]; 0.22 ppm", "value": 90, "unit": "%"},
      {"measurement": "Observed Activity", "setting": "[1]; 0.74 ppm", "value": 20, "unit": "%"}
    ]},
    {"smiles": "CC(Oc1ccc(Cl)cc1Cl)C(=O)NC(C)(C#N)C(C)C", "note": "(stereo not shown) [Fenoxanil, fenoxanil]", "values": [
      {"measurement": "Observed Activity", "setting": "Sclerotinia sclerotiorum; 2.22 ppm", "value": 0, "unit": "%"},
      {"measurement": "Observed Activity", "setting": "Sclerotinia sclerotiorum; 6.66 ppm", "value": 0, "unit": "%"},
      {"measurement": "Observed Activity", "setting": "Sclerotinia sclerotiorum; 20 ppm", "value": 0, "unit": "%"}
    ]},
    {"smiles": "CCCn1nccc1-c1c(F)cccc1Nc1nc2ccc(F)c(F)c2nc1C", "note": "[5,6-difluoro-N-[3-fluoro-2-(2-propylpyrazol-3-yl)phenyl]-3-methyl-quinoxalin-2-amine]", "values": [
      {"measurement": "Observed Activity", "setting": "Sclerotinia sclerotiorum; 6.66 ppm", "value": 0, "unit": "%"},
      {"measurement": "Observed Activity", "setting": "Sclerotinia sclerotiorum; 20 ppm", "value": 0, "unit": "%"},
      {"measurement": "Observed Activity", "setting": "[1]; 0.66 ppm", "value": 70, "unit": "%"},
      {"measurement": "Observed Activity", "setting": "Alternaria solani; 0.25 ppm", "value": 20, "unit": "%"},
      {"measurement": "Observed Activity", "setting": "Alternaria solani; 0.74 ppm", "value": 20, "unit": "%"}
    ]},
    {"smiles": "Cc1ccc(N(SC(F)(Cl)Cl)S(=O)(=O)N(C)C)cc1", "note": "[Tolylfluanid, tolylfluanid]", "values": [
      {"measurement": "Observed Activity", "setting": "Sclerotinia sclerotiorum; 0.025 ppm", "value": 0, "unit": "%"},
      {"measurement": "Observed Activity", "setting": "Sclerotinia sclerotiorum; 0.074 ppm", "value": 0, "unit": "%"},
      {"measurement": "Observed Activity", "setting": "Sclerotinia sclerotiorum; 0.22 ppm", "value": 90, "unit": "%"},
      {"measurement": "Observed Activity", "setting": "[1]; 0.025 ppm", "value": 20, "unit": "%"},
      {"measurement": "Observed Activity", "setting": "[1]; 0.074 ppm", "value": 50, "unit": "%"},
      {"measurement": "Observed Activity", "setting": "[2]; 0.22 ppm", "value": 20, "unit": "%"},
      {"measurement": "Observed Activity", "setting": "[2]; 0.66 ppm", "value": 90, "unit": "%"}
    ]},
    {"smiles": "CCCn1nccc1-c1c(Cl)cccc1Nc1cc2ccc(F)c(F)c2nc1C", "note": "[N-[3-chloro-2-(2-propylpyrazol-3-yl)phenyl]-7,8-difluoro-2-methyl-quinolin-3-amine]", "values": [
      {"measurement": "Observed Activity", "setting": "Sclerotinia sclerotiorum; 0.66 ppm", "value": 0, "unit": "%"},
      {"measurement": "Observed Activity", "setting": "Sclerotinia sclerotiorum; 2 ppm", "value": 0, "unit": "%"},
      {"measurement": "Observed Activity", "setting": "Septoria tritici; 0.008 ppm", "value": 0, "unit": "%"},
      {"measurement": "Observed Activity", "setting": "Septoria tritici; 0.025 ppm", "value": 0, "unit": "%"},
      {"measurement": "Observed Activity", "setting": "Septoria tritici; 0.074 ppm", "value": 20, "unit": "%"},
      {"measurement": "Observed Activity", "setting": "Septoria tritici; 0.22 ppm", "value": 20, "unit": "%"},
      {"measurement": "Observed Activity", "setting": "Alternaria solani; 0.008 ppm", "value": 0, "unit": "%"},
      {"measurement": "Observed Activity", "setting": "Alternaria solani; 0.025 ppm", "value": 20, "unit": "%"}
    ]},
    {"smiles": "CCn1nccc1-c1ccccc1Nc1nc2ccc(F)c(F)c2nc1C", "note": "[N-[2-(2-ethylpyrazol-3-yl)phenyl]-5,6-difluoro-3-methyl-quinoxalin-2-amine]", "values": [
      {"measurement": "Observed Activity", "setting": "Sclerotinia sclerotiorum; 6.66 ppm", "value": 0, "unit": "%"},
      {"measurement": "Observed Activity", "setting": "Sclerotinia sclerotiorum; 20 ppm", "value": 0, "unit": "%"},
      {"measurement": "Observed Activity", "setting": "Alternaria solani; 0.08 ppm", "value": 20, "unit": "%"},
      {"measurement": "Observed Activity", "setting": "Alternaria solani; 0.246 ppm", "value": 20, "unit": "%"},
      {"measurement": "Observed Activity", "setting": "Alternaria solani; 0.74 ppm", "value": 20, "unit": "%"}
    ]},
    {"smiles": "Cc1cc(C2=NOCC(Cc3ccc(Br)cc3C)N2)c(Oc2cccc(Cl)c2F)nn1", "note": "(stereo not shown) [Compound A-1.3, 5-[(4-bromo-2-methyl-phenyl)methyl]-3-[3-(3-chloro-2-fluoro-phenoxy)-6-methyl-pyridazin-4-yl]-5,6-dihydro-4H-1,2,4-oxadiazine]", "values": [
      {"measurement": "Observed Activity", "setting": "Sclerotinia sclerotiorum; 0.02 ppm", "value": 20, "unit": "%"},
      {"measurement": "Observed Activity", "setting": "Sclerotinia sclerotiorum; 0.2 ppm", "value": 70, "unit": "%"},
      {"measurement": "Observed Activity", "setting": "Septoria tritici; 0.2 ppm", "value": 0, "unit": "%"},
      {"measurement": "Observed Activity", "setting": "[1]; 0.02 ppm", "value": 20, "unit": "%"},
      {"measurement": "Observed Activity", "setting": "[1]; 0.2 ppm", "value": 90, "unit": "%"},
      {"measurement": "Observed Activity", "setting": "[2]; 0.02 ppm", "value": 0, "unit": "%"},
      {"measurement": "Observed Activity", "setting": "[2]; 0.2 ppm", "value": 0, "unit": "%"}
    ]},
    {"smiles": "Cc1ccc(CC2CON=C(c3cc(C)nnc3Oc3cccc(Cl)c3F)N2)c(Cl)c1", "note": "(stereo not shown) [Compound A-1.1, 3-[3-(3-chloro-2-fluoro-phenoxy)-6-methyl-pyridazin-4-yl]-5-[(2-chloro-4-methyl-phenyl)methyl]-5,6-dihydro-4H-1,2,4-oxadiazine]", "values": [
      {"measurement": "Observed Activity", "setting": "Septoria tritici; 0.01 ppm", "value": 0, "unit": "%"},
      {"measurement": "Observed Activity", "setting": "Septoria tritici; 0.1 ppm", "value": 0, "unit": "%"},
      {"measurement": "Observed Activity", "setting": "[1]; 0.01 ppm", "value": 20, "unit": "%"},
      {"measurement": "Observed Activity", "setting": "[1]; 0.1 ppm", "value": 90, "unit": "%"},
      {"measurement": "Observed Activity", "setting": "Alternaria solani; 0.01 ppm", "value": 50, "unit": "%"}
    ]},
    {"smiles": "COC(=O)NCc1cc(/C(C)=N/OCc2cccc(C)n2)ccc1Cl", "note": "[Pyribencarb, pyribencarb]", "values": [
      {"measurement": "Observed Activity", "setting": "Sclerotinia sclerotiorum; 0.008 ppm", "value": 20, "unit": "%"},
      {"measurement": "Observed Activity", "setting": "[1]; 0.22 ppm", "value": 20, "unit": "%"}
    ]}
  ]
}
